PubChem BioAssay AID1918953 (Molecular Pharmacology Branch, DTP, NCI, 2023)

System: MDA-MB-231 complex spheroid viability
Test: Anticancer human tumor MDA-MB-231/ATCC cell line growth inhibition;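 note: drug exposure lasted 7 days starting on day 3 of spheroid growth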
Conditions: for IC50: curve of first compound; for viability, T/C: stronger effect = lower value
From the text: Multicellular complex tumor spheroid response to LSD1 Inhibitor Iadademstat in combination with a variety of drugs and investigational agents in selected tumor cell lines
The current study was undertaken to assess response to LSD1 inhibitors in combination with standard-of-care drugs and investigational agents in solid tumor complex spheroid models as well as in the K-562 leukemia. Complex spheroids include a stromal component modeled by human endothelial cells (HUVEC) and fibroblasts modeled by human mesenchymal stem cells (MSCs). The concentration ranges selected for each drug and investigational agent were based upon clinically achievable concentrations if the clinical Cmax of the agent was known.
Compounds. The drugs and investigational agents used in this study are listed on Table 1. All of the agents used, including staurosporine (NSC755774) and gemcitabine (NSC613327), were obtained from the Developmental Therapeutics Program, NCI. FDA-approved anticancer drugs are available from the NCI at http://dtp.nci.nih.gov/branches/dscb/oncology_drugset_explanation.html. Drugs and investigational agents were >95% pure by proton nuclear magnetic resonance (NMR) and liquid chromatography/mass spectrometry (LC/MS). Stock solutions were prepared at 400x in DMSO, stored at -70 degrees C, and diluted in fresh medium prior to their use. The final concentration of DMSO in cell culture wells never exceeded 0.25% (v/v). The FDA-approved anticancer drug set is available from the Developmental Therapeutics Program at https://dtp.cancer.gov/organization/dscb/obtaining/available_plates.htm. All drugs and investigational agents were tested over a range starting from a high concentration at or near the clinical Cmax and decreasing in half-log increments. If the clinical Cmax for an agent had not been determined, the highest concentration tested was 10 microM.
Cell Lines. The patient-derived cancer cell (PDC) lines: 292921-168-R-J2-PDC, K24384-001-R-PDC, and 521955-158-R2-J5-PDC pancreatic carcinomas, 556581-035-R-J1 ovarian carcinoma, 324938-238-R-J1-PDC, 855422-203-R-J1-PDC and 883617-216-R-J1-PDC urothelial bladder carcinomas, 743489-274-T-PDC renal cell carcinoma, 138582-R-J1 Merkel cell tumor, K60290-347-R-J1 and K57222-313-R-J1-PDC glioblastomas, 653999-131-R-J2-PDC, LG0703-F948-PDC, and 349418-098-R-PDC non-small cell lung carcinomas, 885512-296-R-J2-PDC, 171881-019-R-J1-PDC breast carcinomas and 186277-243-T-J2-PDC and 233499-124-R-J2-PDC colon carcinomas were obtained from the NCI Patient-Derived Models Repository (PDMR, https://pdmr.cancer.gov). The established cell lines NCI/ADR-RES (RRID:CVCL_14520 and OVCAR-5 (RRID:CVCL_1628) ovarian carcinomas, 786-O (RRID:CVCL_1051) and A498 (RRID:CVCL_A498) renal cell carcinoma, NCI-H211 (ATCC, cat. CRL-5824; RRID:CVCL_1529), NCI-H196 (ATCC, cat. CRL-5823, RRID:CVCL_1509), SW 1271 (ATCC, cat. CRL-2177, RRID:CVCL_1716) and NCI-H1876 (ATCC, cat. CRL-5902, RRID:CVCL_1503) small cell lung carcinomas, MDA-MB-231 (RRID:CVCL_0062) and MDA-MB-468 (RRID:CVCL_0419)breast carcinomas (10-12). Pooled donor human umbilical vein endothelial cells (HUVEC, Lonza, cat. CC-2519) and human mesenchymal stem cells (hMSC, Lonza, cat. PT-2501) were purchased from Lonza (Walkersville, MD).
Cell Culture. All cells were maintained in an incubator at 37 degrees C and 5% CO2 with 95% humidity. The PDC lines were cultured according to standard operating procedures established by the NCI PDMR (https://pdmr.cancer.gov). Briefly all PDCs were thawed and cultured in Matrigel-coated flasks prepared with a working solution of 1X Ham's F-12 nutrient mix, without supplementation (Invitrogen, Waltham, MA, cat. 11765054), 100 U/mL penicillin-streptomycin (Invitrogen, cat. 15140122), and 2.5% Matrigel (Corning Inc., Corning, NY, cat. 354248) for the first three passages. […]

[1] = second compound 0.1 µM, first compound 0.00949 µM
[2] = second compound 0.1 µM, first compound 0.03 µM
[3] = second compound 0.1 µM, first compound 0.0949 µM
[4] = second compound 0.1 µM, first compound 0.3 µM
[5] = second compound 0.1 µM, first compound 0.949 µM
[6] = second compound 0.1 µM, first compound 3 µM
[7] = second compound 0.316 µM, first compound 0.00949 µM
[8] = second compound 0.316 µM, first compound 0.03 µM
[9] = second compound 0.316 µM, first compound 0.0949 µM
[10] = second compound 0.316 µM, first compound 0.3 µM
[11] = second compound 0.316 µM, first compound 0.949 µM
[12] = second compound 0.316 µM, first compound 3 µM
[13] = second compound 1 µM, first compound 0.00949 µM
[14] = second compound 1 µM, first compound 0.03 µM
[15] = second compound 1 µM, first compound 0.0949 µM
[16] = second compound 1 µM, first compound 0.3 µM
[17] = second compound 1 µM, first compound 0.949 µM
[18] = second compound 1 µM, first compound 3 µM
[19] = second compound 3.16 µM, first compound 0.00949 µM
[20] = second compound 3.16 µM, first compound 0.03 µM
[21] = second compound 3.16 µM, first compound 0.0949 µM
[22] = second compound 3.16 µM, first compound 0.3 µM
[23] = second compound 3.16 µM, first compound 0.949 µM
[24] = second compound 3.16 µM, first compound 3 µM
[25] = second compound 10 µM, first compound 0.00949 µM
[26] = second compound 10 µM, first compound 0.03 µM
[27] = second compound 10 µM, first compound 0.0949 µM
[28] = second compound 10 µM, first compound 0.3 µM
[29] = second compound 10 µM, first compound 0.949 µM
[30] = second compound 10 µM, first compound 3 µM

Structure (SMILES)	IC50 (second compound 0.1 µM)	IC50 (second compound 0.316 µM)	IC50 (second compound 1 µM)	IC50 (second compound 3.16 µM)	IC50 (second compound 10 µM)	viability, T/C [1]	viability, T/C [2]	viability, T/C [3]	viability, T/C [4]	viability, T/C [5]	viability, T/C [6]	viability, T/C [7]	viability, T/C [8]	viability, T/C [9]	viability, T/C [10]	viability, T/C [11]	viability, T/C [12]	viability, T/C [13]	viability, T/C [14]	viability, T/C [15]	other results
Nc1ccccc1NC(=O)c1ccc(CNC(=O)OCc2cccnc2)cc1 + NC1CC1c1ccc(-c2cccc(O)c2)cc1	13.3 nM	10.5 nM	< 9.49 nM	< 9.49 nM	< 9.49 nM	56.6%	34.9%	22.7%	12.2%	2.07%	0.17%	52.7%	31.5%	21%	10.6%	1.85%	0.16%	43.3%	27%	21.7%	viability, T/C [16]: 9.99%; viability, T/C [17]: 1.67%; viability, T/C [18]: 0.15%; viability, T/C [19]: 46.3%; viability, T/C [20]: 31.6%; viability, T/C [21]: 21.3%; viability, T/C [22]: 13.3%; viability, T/C [23]: 1.34%; viability, T/C [24]: 0.13%; viability, T/C [25]: 36.3%; viability, T/C [26]: 22.1%; viability, T/C [27]: 12%; viability, T/C [28]: 7.05%; viability, T/C [29]: 0.48%; viability, T/C [30]: 0.24%
O=C(C=Cc1cccc(S(=O)(=O)Nc2ccccc2)c1)NO + NC1CC1c1ccc(-c2cccc(O)c2)cc1	20.3 nM	13.2 nM	11.4 nM	< 9.49 nM	< 9.49 nM	61.6%	44%	31.3%	19.1%	1.09%	74.2%	55.9%	35.5%	24.9%	17.7%	0.33%	56.4%	52.5%	37.2%	20.9%	viability, T/C [16]: 19.7%; viability, T/C [17]: 0.58%; viability, T/C [18]: 56.9%; viability, T/C [19]: 47.9%; viability, T/C [20]: 31.1%; viability, T/C [21]: 18.4%; viability, T/C [22]: 15.8%; viability, T/C [23]: 0.63%; viability, T/C [24]: 58.4%; viability, T/C [25]: 31.4%; viability, T/C [26]: 18.4%; viability, T/C [27]: 12.8%; viability, T/C [28]: 5.16%; viability, T/C [29]: 0.34%; viability, T/C [30]: 37.3%
